Laboratory results from patent US20250051825A1, “Ex Vivo Production of Compounds of Interest” (Nederlandse Organisatie voor …, priority 2021, published 2025).

Tests used:
perfused porcine liver [1] = assay: Atorvastatin normothermic machine perfusion of ex vivo porcine liver, perfusate and bile analysed by LC/MS; format: in vitro ADME, Sus scrofa domesticus; settings: for % billiary clearance (metabolite abundance as percentage of given Atorvastatin dose): 0-120 min, Atorva alone, 0.104 mg atorvastatin to portal vein, bile, n = 1
Method: Porcine Livers. Livers were obtained from a local slaughterhouse (Sus scrofa domesticus, approximately at the age of 6 months, with body weight between 100 and 120 kg). Pigs were sacrificed by a standardized procedure of electrocution followed by exsanguination. Thereafter, 3 L of blood was collected in a container supplemented with 25,000 IU of heparin. All abdominal organs were dissected outside the animal and collected. Within 20 minutes after termination, the vena porta was cannulated and directly flushed by gravity with 3 L of NaCl 0.9% (Baxter BV, Utrecht, The Netherlands) supplemented with 5000 IU of heparin followed by 2 L of ice-cold histidine-tryptophan-ketoglutarate solution (Plegistore, Warszawa, Poland). In the meantime, the arteria hepatica was dissected, cannulated, and subsequently flushed with histidine-tryptophan-ketoglutarate. At the laboratory, side branches were ligated, and the common bile duct was cannulated, whereas the ductus cysticus, derived from the gall bladder, was ligated. Normothermic Machine Perfusion. The porcine livers were perfused using the LiverAssist device (XVIVO, Groningen, The Netherlands). The machine consists of two rotary pumps that provide a pulsatile flow to the hepatic artery and a continuous flow to the portal vein. The system was filled with 2 L perfusion fluid containing red blood cells and perfusate (Table 2). […] Additionally, amino acids and vitamins were continuously provided to keep the liver metabolically active. Gas delivery to the LiverAssist consisted of 95% oxygen and 5% carbon dioxide at 2 L/min, and the temperature was set at 39 C (body temperature pigs). […] Arterial blood gas samples were taken hourly to monitor liver viability (PH, glucose, Na, K, lactate, etc.) using the i-STAT clinical analyzer (Abbot Point of Care Inc., Princeton, NJ). […] Time of starting the slow bolus was set at t=0 min. […] Drug concentrations in perfusate, bile and liver biopsies were determined by LC-MS/MS analysis as described below. […] Briefly, 20 μL of sample was extracted by adding 100 μL of acetonitrile containing internal standard. […] Samples were then mixed with 50 μL of water, vortexed and injected in to LC/MS for quantification. The mass spectrometer (AB Sciex API 5500) was operated in electrospray positive ion mode with the capillary voltage of 5.5 kV and Spray temperature of 550° C. The multiple reaction monitoring transitions used for all the compounds are shown table 4.

perfused porcine liver [2] = assay: Midazolam continuous portal administration to ex vivo perfused porcine liver, metabolite quantified by UPLC/MS
[3] = 240 min of perfusion, input of 49.8 mg midazolam
[4] = from 40 mg midazolam (as summarised in description)

CC(C)c1c(C(=O)Nc2ccccc2)c(-c2ccccc2)c(-c2ccc(F)cc2)n1CC[C@@H]1C[C@@H](O)CC(=O)O1 [Atorvastatin lactone]
% billiary clearance (metabolite abundance as percentage of given Atorvastatin dose) (perfused porcine liver [1]): 9.17%

CC(C)c1c(C(=O)Nc2ccc(O)cc2)c(-c2ccccc2)c(-c2ccc(F)cc2)n1CCC1CC(O)CC(=O)O1 (stereo not drawn) [4-hydroxy atorva lactone, 4-hydroxy atorvastatin lactone]
% billiary clearance (metabolite abundance as percentage of given Atorvastatin dose) (perfused porcine liver [1]): 0.400%

CC(C)c1c(C(=O)Nc2ccccc2)c(-c2ccccc2)c(-c2ccc(F)cc2)n1CC[C@@H](O)C[C@@H](O)CC(=O)O [atorvastatin, Atorvastatin, reference compound]
time until atorvastatin was detected in the bile (perfused porcine liver [1]; after the start of the bolus administration, slow bolus of 0.104 mg over 10 minutes to portal vein): ≤ 10 min | parent compound secreted into the bile (perfused porcine liver [1]; within 120 min of perfusion, 0.104 mg to portal vein): 13.0±5.6%

O=C(O)[C@H]1O[C@@H](OCc2ncc3n2-c2ccc(Cl)cc2C(c2ccccc2F)=NC3)[C@H](O)[C@@H](O)[C@@H]1O [1-OH midazolam glucuronide, midazolam 1′O-glucuronide]
presence in perfusate (chromatogram) (perfused porcine liver [2]; 240 min after starting the portal administration of midazolam): (abundant) presence | Yield 1-OH midazolam glucuronide, Bile (perfused porcine liver [2]; [3]): 0.254 mg | Yield 1-OH midazolam glucuronide, Perfusate (perfused porcine liver [2]; [3]): 1.19 mg | Yield 1-OH midazolam glucuronide, Tissue (perfused porcine liver [2]; [3]): 1.891 mg | Yield 1-OH midazolam glucuronide, Total (perfused porcine liver [2]; 240 min of perfusion, input of 49.8 mg midazolam, sum of perfusate, bile, tissue): 3.33 mg 1-OH midazolam glucuronide | metabolite obtained from liver tissue (perfused porcine liver [2]; [4]): 2 mg | metabolite obtained from plasma and bile (perfused porcine liver [2]; [4]): 1.5 mg | total metabolite produced (perfused porcine liver [2]; [4]): 3.5 mg

CC(C)c1c(C(=O)Nc2ccccc2O)c(-c2ccccc2)c(-c2ccc(F)cc2)n1CCC(O)CC(O)CC(=O)O (stereo not drawn) [2-hydroxy atorva, 2-hydroxy atorvastatin]
% billiary clearance (metabolite abundance as percentage of given Atorvastatin dose) (perfused porcine liver [1]): 5.33%

CC(C)c1c(C(=O)Nc2ccc(O)cc2)c(-c2ccccc2)c(-c2ccc(F)cc2)n1CC[C@@H](O)C[C@@H](O)CC(=O)O [4-hydroxy atorva, 4-hydroxy atorvastatin]
% billiary clearance (metabolite abundance as percentage of given Atorvastatin dose) (perfused porcine liver [1]): 10.28%

CC(C)c1c(C(=O)Nc2ccccc2O)c(-c2ccccc2)c(-c2ccc(F)cc2)n1CCC1CC(O)CC(=O)O1 (stereo not drawn) [2-hydroxy atorva lactone, 2-hydroxy atorvastatin lactone]
% billiary clearance (metabolite abundance as percentage of given Atorvastatin dose) (perfused porcine liver [1]): 3.48%
